Source: US20240215905A1, “WOUND DRESSING” (5D HEALTH PROTECTION GROUP LTD, priority 2021, published 2024)

How the values were obtained:
Pseudomonas = test: Bacterial proliferation assay (Colony Forming Units) with added silver; format: cell-based; details: for added Ag^+ concentration at which antibacterial efficacy is apparent: 0.3 ppm is the lowest concentration measured (range 0.3 to 300 ppm)
Experimental: To assess the antibacterial efficacy of the silver, and to correlate this with the sensor response, bacterial proliferation assays were performed on MHB2, PBS, NaNO3 and SWF solutions with added silver at concentrations between 0.3 to 300 ppm.

[1] = Optical density measurements indicating AgCl precipitates/aggregates in solution; format: physicochemical; details: no bacteria present
Text: Optical density measurements can be used to indicate the presence of AgCl precipitates/aggregates in solution. […] No bacteria where present for the measurements.

[Ag+] [Ag^+, silver ions]
added Ag^+ concentration at which antibacterial efficacy is apparent (Pseudomonas; NaNO3 solution): ≤ 0.3 ppm | added Ag^+ concentration at which antibacterial efficacy is apparent (Pseudomonas; PBS solution): ≤ 0.3 ppm | added Ag^+ concentration at which antibacterial efficacy is seen (Pseudomonas; SWF (simulated wound fluid, 33 g/L BSA) solution): ≥ 30 ppm | added Ag^+ concentration above which AgCl precipitation is seen (optical density) ([1]; PBS): above 1 ppm | added Ag^+ concentration above which AgCl precipitation is seen (optical density) ([1]; SWF): above 30 ppm
